Test results reported in patent US7427627B2, “N-(4-(4-methylthiazol-5-yl) pyrimidin-2-yl)-N-phenylamines as antiproliferative compounds” (Cyclacel Limited, priority 2001, dated 2008).
Like-named read-outs stand apart in the source and are kept apart here.

What was measured:
[1] = target: polo-like kinase 1 (Homo sapiens, UniProt P53350); assay: Kinase specificity assay Plk1; assay type: biochemical; conditions: Table 2
[2] = target: T1, protein kinase C α (Homo sapiens, UniProt P17252); assay: Kinase specificity assay PKCα; assay type: biochemical; conditions: Table 2
T1 construct: His6
Protocol: PKCα kinase activity may be measured by the incorporation of radio-labeled phosphate in Histone 3, as described. The reaction mixture (total volume 65 μl) consist of 50 mM Tris-HCl, 1 mM Calcium acetate, 3 mM DTT, 0.03 mg/ml Phosphatidylserine, 2.4 μg/ml PMA, 0.04% NP40, 12 mM Mg/Cl, purified PKCα-100 ng, Histone 3, 0.2 mg/ml, 100 μM ATP, 0.2 μCi [γ-^32P]-ATP. The reaction is carried over 15 min at 37° C. in microplate shaker and is stopped by adding 10 μl 75 mM orthophosphoric acid and placing the plate on ice. 50 μl of the reaction mixture is transferred onto P81 filterplate and after washing off the free radioactive phosphate (3 times with 200 μl 75 mM orthophosphoric acid per well) 50 μl of scintillation liquid (Microscint 40) were added to each well and the radioactivity is measured on Scintillation counter (Topcount, HP).

[3] = target: extracellular-signal-regulated kinase 2 (Homo sapiens, UniProt P28482); assay: Kinase specificity assay ERK-2; assay type: biochemical; conditions: Table 2
Sequence of extracellular-signal-regulated kinase 2 (P28482 whole entry): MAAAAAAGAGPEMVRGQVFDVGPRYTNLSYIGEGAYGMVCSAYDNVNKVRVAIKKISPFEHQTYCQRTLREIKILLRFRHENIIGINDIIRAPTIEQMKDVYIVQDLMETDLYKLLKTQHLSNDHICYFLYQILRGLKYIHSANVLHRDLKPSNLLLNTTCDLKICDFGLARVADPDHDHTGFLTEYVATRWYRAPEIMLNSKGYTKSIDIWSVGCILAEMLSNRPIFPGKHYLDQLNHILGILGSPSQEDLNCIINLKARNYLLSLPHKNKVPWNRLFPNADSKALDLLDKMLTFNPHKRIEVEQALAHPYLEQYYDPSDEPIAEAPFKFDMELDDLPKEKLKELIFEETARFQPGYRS

[4] = target: calmodulin-dependent kinase II; conditions: read-out: Kinase specificity IC50 Cam-KII; Table 2
[5] = target: p70 ribosomal protein S6 kinase (Homo sapiens, UniProt P23443); assay: Kinase specificity assay p70-S6K; assay type: biochemical; conditions: Table 2
[6] = target: stress-activated protein kinase 2a (Homo sapiens, UniProt Q16539); assay: Kinase specificity assay SAPK2a; assay type: biochemical; conditions: Table 2
[7] = target: CDK7-cyclin H-MAT 1 complex (Homo sapiens, UniProt P50613); assay: Kinase specificity assay CDK7/H; assay type: biochemical; conditions: Table 2
Sequence of CDK7-cyclin H-MAT 1 complex (P50613 whole entry): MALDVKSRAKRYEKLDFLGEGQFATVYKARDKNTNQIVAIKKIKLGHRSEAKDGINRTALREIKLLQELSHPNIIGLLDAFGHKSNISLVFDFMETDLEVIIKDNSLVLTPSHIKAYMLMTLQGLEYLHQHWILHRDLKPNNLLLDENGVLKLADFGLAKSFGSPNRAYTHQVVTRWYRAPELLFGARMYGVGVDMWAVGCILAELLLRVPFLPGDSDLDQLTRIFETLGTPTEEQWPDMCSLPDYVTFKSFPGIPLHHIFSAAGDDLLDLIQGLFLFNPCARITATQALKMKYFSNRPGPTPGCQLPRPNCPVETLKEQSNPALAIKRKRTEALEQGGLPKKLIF
Sequence of CDK7-cyclin H-MAT 1 complex (P51946 whole entry partner): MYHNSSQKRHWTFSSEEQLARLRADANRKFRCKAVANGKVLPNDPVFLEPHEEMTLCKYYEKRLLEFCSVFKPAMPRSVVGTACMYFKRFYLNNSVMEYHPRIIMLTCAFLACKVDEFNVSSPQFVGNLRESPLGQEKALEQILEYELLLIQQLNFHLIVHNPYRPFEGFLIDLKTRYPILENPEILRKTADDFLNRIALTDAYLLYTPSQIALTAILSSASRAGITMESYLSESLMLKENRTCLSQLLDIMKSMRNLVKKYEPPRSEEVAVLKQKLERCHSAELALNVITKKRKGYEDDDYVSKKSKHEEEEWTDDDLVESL
Sequence of CDK7-cyclin H-MAT 1 complex (P51948 whole entry partner): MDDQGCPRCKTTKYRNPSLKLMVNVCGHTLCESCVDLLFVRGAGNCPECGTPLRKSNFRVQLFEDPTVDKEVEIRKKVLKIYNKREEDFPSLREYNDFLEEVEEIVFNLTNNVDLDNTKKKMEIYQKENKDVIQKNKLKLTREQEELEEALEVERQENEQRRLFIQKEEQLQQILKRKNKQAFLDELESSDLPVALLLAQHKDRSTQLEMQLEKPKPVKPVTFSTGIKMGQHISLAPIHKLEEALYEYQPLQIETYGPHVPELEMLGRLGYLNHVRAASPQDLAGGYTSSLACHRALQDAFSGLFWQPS

[8] = target: glycogen synthase kinase 3β (Homo sapiens, UniProt P49841); assay: Kinase specificity assay GSK3β; assay type: biochemical; conditions: Table 2
Sequence of glycogen synthase kinase 3β (P49841 whole entry): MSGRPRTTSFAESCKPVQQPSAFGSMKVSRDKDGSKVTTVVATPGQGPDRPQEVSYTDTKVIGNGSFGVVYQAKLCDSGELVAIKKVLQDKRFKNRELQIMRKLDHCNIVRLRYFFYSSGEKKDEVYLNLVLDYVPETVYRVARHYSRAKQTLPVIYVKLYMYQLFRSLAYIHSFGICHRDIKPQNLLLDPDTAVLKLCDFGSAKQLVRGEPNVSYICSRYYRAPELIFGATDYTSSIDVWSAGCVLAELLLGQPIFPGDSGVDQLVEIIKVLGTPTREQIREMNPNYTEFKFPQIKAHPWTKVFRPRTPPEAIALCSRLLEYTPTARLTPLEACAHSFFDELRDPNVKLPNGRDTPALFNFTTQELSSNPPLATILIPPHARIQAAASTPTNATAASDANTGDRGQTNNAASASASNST

[9] = target: T2, CDK1-cyclin B1 complex (Homo sapiens, UniProt P06493); assay: Kinase specificity assay CDK1/B1; assay type: biochemical; conditions: Table 2
T2 construct: His6

[10] = target: protein kinase B (Homo sapiens, UniProt P31749); assay: Kinase specificity assay Akt/PKB; assay type: biochemical; conditions: Table 2
Sequence of protein kinase B (P31749 whole entry): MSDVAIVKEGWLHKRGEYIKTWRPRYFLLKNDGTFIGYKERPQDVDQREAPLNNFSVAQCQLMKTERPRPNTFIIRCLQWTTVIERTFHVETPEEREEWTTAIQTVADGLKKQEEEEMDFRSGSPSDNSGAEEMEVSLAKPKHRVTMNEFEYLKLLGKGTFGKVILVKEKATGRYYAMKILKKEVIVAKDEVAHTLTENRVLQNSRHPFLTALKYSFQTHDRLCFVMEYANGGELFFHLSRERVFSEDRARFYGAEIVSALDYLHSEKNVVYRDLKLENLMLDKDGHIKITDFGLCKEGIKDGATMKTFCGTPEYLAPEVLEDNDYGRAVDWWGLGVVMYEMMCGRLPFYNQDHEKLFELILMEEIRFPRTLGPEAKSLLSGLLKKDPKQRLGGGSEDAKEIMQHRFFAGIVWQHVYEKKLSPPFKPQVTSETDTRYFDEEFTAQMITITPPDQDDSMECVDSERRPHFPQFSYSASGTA

[11] = test system: Saos-2; assay: 72-h MTT cytotoxicity assay, Saos-2; assay type: cell-based; conditions: Homo sapiens, SAOS-2, read-out: 72-h MTT in vitro IC50 (μM) Saos-2; Table 1; 72 h
Protocol: (§1) The compounds from the examples above were subjected to a standard cellular proliferation assay using human tumour cell lines obtained from the ATCC (American Type Culture Collection, 10801 University Boulevard, Manessas, Va. 20110-2209, USA). Standard 72-h MTT (thiazolyl blue; 3-[4,5-dimethylthiazol-2-yl]-2,5-diphenyltetrazolium bromide) assays were performed (Haselsberger, K.; Peterson, D. C.; Thomas, D. G.; Darling, J. L. Anti Cancer Drugs 1996, 7, 331-8; Loveland, B. E.; Johns, T. G.; Mackay, I. R.; Vaillant, F.; Wang, Z. X.; Hertzog, P. J. Biochemistry International 1992, 27, 501-10). In short: cells were seeded into 96-well plates according to doubling time and incubated overnight at 37° C. Test compounds were made up in DMSO and a 1/3 dilution series prepared in 100 μL cell media, added to cells (in triplicates) and incubated for 72 ho at 37° C. MTT was made up as a stock of 5 mg/mL in cell media and filter-sterilised. Media was removed from cells followed by a wash with 200 μL PBS. MTT solution was then added at 20 μL per well and incubated in the dark at 37° C. for 4 h. MTT solution was removed and cells again washed with 200 μL PBS. MTT dye was solubilised with 200 μL per well of DMSO with agitation.

[12] = test system: A549; assay: 72-h MTT cytotoxicity assay, A549; assay type: cell-based, human; conditions: Homo sapiens
Protocol: In short: cells were seeded into 96-well plates according to doubling time and incubated overnight at 37° C. Test compounds were made up in DMSO and a 1/3 dilution series prepared in 100 μL cell media, added to cells (in triplicates) and incubated for 72 ho at 37° C. MTT was made up as a stock of 5 mg/mL in cell media and filter-sterilised. Media was removed from cells followed by a wash with 200 μL PBS. MTT solution was then added at 20 μL per well and incubated in the dark at 37° C. for 4 h. MTT solution was removed and cells again washed with 200 μL PBS. MTT dye was solubilised with 200 μL per well of DMSO with agitation.

[13] = test system: HT29; assay: 72-h MTT cytotoxicity assay, HT29; assay type: cell-based; conditions: Homo sapiens, HT-29, read-out: 72-h MTT in vitro IC50 (μM) HT29; Table 1; 72 h
Protocol: as §1

[14] = target: Ableson tyrosine kinase (Homo sapiens, UniProt P00519); assay: Kinase specificity assay Abl; assay type: biochemical; conditions: Table 2
Sequence of Ableson tyrosine kinase (P00519 whole entry): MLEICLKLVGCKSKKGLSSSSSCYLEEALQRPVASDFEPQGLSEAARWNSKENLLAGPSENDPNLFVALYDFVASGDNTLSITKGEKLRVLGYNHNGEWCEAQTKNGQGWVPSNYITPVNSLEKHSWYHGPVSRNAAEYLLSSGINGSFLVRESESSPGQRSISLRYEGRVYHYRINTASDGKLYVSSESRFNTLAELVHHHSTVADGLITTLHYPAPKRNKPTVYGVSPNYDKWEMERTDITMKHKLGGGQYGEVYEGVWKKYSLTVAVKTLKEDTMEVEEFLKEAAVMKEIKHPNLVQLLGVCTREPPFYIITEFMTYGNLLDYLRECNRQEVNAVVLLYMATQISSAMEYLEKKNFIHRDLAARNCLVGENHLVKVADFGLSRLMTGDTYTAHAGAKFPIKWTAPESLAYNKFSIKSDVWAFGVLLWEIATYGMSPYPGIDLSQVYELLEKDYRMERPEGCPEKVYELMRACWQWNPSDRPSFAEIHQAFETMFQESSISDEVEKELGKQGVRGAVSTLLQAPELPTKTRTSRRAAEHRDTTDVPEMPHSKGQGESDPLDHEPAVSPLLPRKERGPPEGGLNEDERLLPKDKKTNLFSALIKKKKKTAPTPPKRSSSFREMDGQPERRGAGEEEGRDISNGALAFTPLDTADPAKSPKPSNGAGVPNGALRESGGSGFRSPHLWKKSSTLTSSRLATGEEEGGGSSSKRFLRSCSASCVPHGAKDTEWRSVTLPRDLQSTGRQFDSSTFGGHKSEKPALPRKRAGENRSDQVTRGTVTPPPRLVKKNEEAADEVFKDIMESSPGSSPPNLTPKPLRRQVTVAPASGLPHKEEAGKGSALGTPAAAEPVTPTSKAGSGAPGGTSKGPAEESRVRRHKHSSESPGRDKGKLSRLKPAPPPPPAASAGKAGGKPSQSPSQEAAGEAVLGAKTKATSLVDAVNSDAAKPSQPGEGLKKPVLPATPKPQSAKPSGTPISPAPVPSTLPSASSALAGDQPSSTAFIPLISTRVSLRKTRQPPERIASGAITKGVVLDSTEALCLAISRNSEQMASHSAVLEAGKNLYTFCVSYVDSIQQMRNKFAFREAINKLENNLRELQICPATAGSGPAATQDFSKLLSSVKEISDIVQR

Sequence of polo-like kinase 1 (P53350 whole entry): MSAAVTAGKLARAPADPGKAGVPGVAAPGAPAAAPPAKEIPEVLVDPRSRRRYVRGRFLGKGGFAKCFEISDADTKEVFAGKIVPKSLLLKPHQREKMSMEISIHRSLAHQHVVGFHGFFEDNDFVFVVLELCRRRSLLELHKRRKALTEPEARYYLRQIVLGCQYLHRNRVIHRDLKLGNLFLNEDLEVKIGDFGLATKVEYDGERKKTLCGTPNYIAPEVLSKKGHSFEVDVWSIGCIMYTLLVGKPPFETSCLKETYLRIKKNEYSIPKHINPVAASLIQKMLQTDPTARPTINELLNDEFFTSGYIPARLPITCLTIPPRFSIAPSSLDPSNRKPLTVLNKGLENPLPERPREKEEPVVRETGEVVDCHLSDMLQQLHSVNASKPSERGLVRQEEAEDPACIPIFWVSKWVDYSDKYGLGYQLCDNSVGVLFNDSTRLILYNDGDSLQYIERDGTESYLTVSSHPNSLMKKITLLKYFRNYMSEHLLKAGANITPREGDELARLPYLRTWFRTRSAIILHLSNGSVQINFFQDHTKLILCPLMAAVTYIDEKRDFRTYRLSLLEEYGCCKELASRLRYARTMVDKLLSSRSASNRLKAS

Compound	IC50 [1] [µM]	IC50 [2] [µM]	IC50 [3] [µM]	IC50 [4] [µM]	IC50 [5] [µM]	IC50 [6] [µM]	IC50 [7] [µM]	IC50 [8] [µM]	IC50 [9] [µM]	IC50 [10] [µM]	IC50 [11] [µM]	IC50 ([12]; A549, 72 h, read-out: 72-h MTT in vitro IC50 (μM) A549) [µM]	IC50 [13] [µM]	IC50 [14] [µM]	IC50 ([12]; A549, read-out: 72-h MTT in vitro IC50 (μM) A549, Table 1, 72 h) [µM]
Cc1nc(C)c(-c2ccnc(Nc3ccc(N(C)C)c([N+](=O)[O-])c3)n2)s1 [Compound 25, N^4-[4-(2,4-Dimethyl-thiazol-5-yl)-pyrimidin-2-yl-]-N^1,N^1-dimethyl-2-nitro-benzene-1,4-diamine]	> 100	> 100	> 100	> 100	25	> 100	1.3	0.9	0.12	61	0.35	0.43	0.3	9.9	–
Cc1nc(C)c(-c2ccnc(Nc3ccc(N(C)C)c(Cl)c3)n2)s1 [Compound 26, 2-[N-(4-N,N-Dimethylamino-3-chlorophenyl)]-4-(2,4-dimethylthiazol-5-yl)-pyrimidineamine]	> 100	24	20	69	32	86	4.8	2.2	–	6.3	0.32	–	0.15	1.6	0.29
